# Test results as given in patent publication US20150368642A1, “LNA OLIGONUCLEOTIDE CARBOHYDRATE CONJUGATES” (HOFFMANN-LA ROCHE INC., priority 2013, published 2015).
# l = locked nucleic acid (LNA); d = 2'-deoxy (DNA)
# Legend:
# PCSK9 = experiment: Non-human primate study, serum PCSK9 protein ELISA; format: in vivo; settings: cynomolgus monkeys, single dose, entire length of the study
# Method: (§1) The primary objective for this study is to investigate selected lipid markers over 7 weeks after a single slow bolus injection of anti-PCSK9 and anti-ApoB LNA conjugated to GalNac cluster (Conj2a) to cynomolgus monkeys and assess the potential toxicity of compounds in monkey. The compounds which were prepared in sterile saline (0.9%) at an initial concentration of 0.625 and 2.5 mg/ml).
# Male (PCSK9) or female monkeys (ApoB) monkeys of at least 24 months old are used, and given free access to tap water and 180 g of MWM(E) SQC SHORT expanded diet (Dietex France, SDS, Saint Gratien, France) will be distributed daily per animal. The total quantity of food distributed in each cage will be calculated according to the number of animals in the cage on that day. In addition, fruit or vegetables will be given daily to each animal. The animals will be acclimated to the study conditions for a period of at least 14 days before the beginning of the treatment period. […] After three weeks, the data will be analyzed and a second group of animals using a higher or lower dosing regimen may be initiated—preliminary dose setting is 0.5 mg/kg and 1 mg/kg, or lower than that based on the first data set.
# The dose formulations will be administered once on Day 1. […] Clinical observations and body weight and food intake (per group) will be recorded prior to and during the study. […]
# ApoB mRNA = experiment: Knock down of ApoB mRNA in liver and kidney (qPCR, Example 5); format: in vivo, C57BL6/J mice; settings: mice; for knock down of ApoB mRNA: single iv or sc dose equimolar to 0.25 mg/kg, days 1-7, FIG. 8
# Excerpt: (§2) Capital letters are LNA nucleosides (such as beta-D-oxy LNA), lower case letters are a DNA nucleoside. Subscript s represents a phosphorothioate internucleoside linkage (region A). LNA cytosines are optionally 5-methyl cytosine. The 2PO linker (region B) is 5′ to the sequence region A, and comprises of two DNA nucleosides linked by phosphodiester linkage, with the internucleoside linkage between the 3′ DNA nucleoside of region A and the 5′ LNA nucleoside of region A also being phosphodiester. A linkage group (Y) may be used to link the conjugate group, when present, to region B, or A (SEQ ID NO 13 and 11). C57BL6/J mice were injected either iv or sc with a single dose saline or 0.25 mg/kg unconjugated LNA-antisense oligonucleotide (SEQ ID N012) or equimolar amounts of LNA antisense oligonucleotides conjugated to GalNAc1, GalNAc2, or cholesterol (2PO) and sacrificed at days 1-7 according to the table below (experimental design).
# (§3) RNA was isolated from liver and kidney and subjected to qPCR with ApoB specific primers and probe to analyse for ApoB mRNA knockdown. The oligonucleotide content was measured using ELISA method and total cholesterol in serum was measured.
# C57BL/6JBom female animals, app. 20 g at arrival, were dosed with 10 ml per kg BW (according to day 0 bodyweight) i.v. or s.c. of the compound formulated in saline or saline alone according to the table above.
# The animals were anaesthetised with 70% CO2-30% O2 and sacrificed by cervical dislocation according to the above table. One half of the large liver lobe and one kidney were minced and submerged in RNAlater. The other half of liver and the other kidney was frozen and used for tissue analysis. […]
# (§4) For each sample 0.5 μg total RNA was adjusted to (10.8 μl) with RNase free H2O and mixed with 2 μl random decamers (50 μM) and 4 μl dNTP mix (2.5 mM each dNTP) and heated to 70° C. for 3 min after which the samples were rapidly cooled on ice. […] Oligonucleotide content in liver and kidney was measured by sandwich ELISA method.
# ApoB [1] = experiment: Total cholesterol in serum (Example 5); format: in vivo, C57BL6/J mice; settings: mice, iv and sc administration, versus SEQ ID NO 12 and 14, FIG. 9
# Excerpt: as §2, with “C57BL6/J mice were injected either iv or sc with a single dose saline or 0.25 mg/kg unconjugated LNA-antisense oligonucleotide (SEQ ID N012) or equimolar amounts of LNA antisense oligonucleotides conjugated to GalNAc1, GalNAc2, or cholesterol (2PO) and sacrificed at days 1-7 according to the table below (experimental design).” left out
# as §3
# Immediately before sacrifice retro-orbital sinus blood was collected using S-monovette Serum-Gel vials (Sarstedt, Nümbrecht, Germany) for serum preparation. Serum was analyzed for total cholesterol using ABX Pentra Cholesterol CP (Triolab, Brondby, Denmark) according to the manufacturer's instructions.
# [2] = Oligonucleotide content in liver and kidney by sandwich ELISA (Example 5); format: in vivo, C57BL6/J mice; settings: mice
# Excerpt: as §2, with “C57BL6/J mice were injected either iv or sc with a single dose saline or 0.25 mg/kg unconjugated LNA-antisense oligonucleotide (SEQ ID N012) or equimolar amounts of LNA antisense oligonucleotides conjugated to GalNAc1, GalNAc2, or cholesterol (2PO) and sacrificed at days 1-7 according to the table below (experimental design).” left out
# RNA was isolated from liver and kidney and subjected to qPCR with ApoB specific primers and probe to analyse for ApoB mRNA knockdown. The oligonucleotide content was measured using ELISA method and total cholesterol in serum was measured. […]
# as §4
# ApoB [3] = experiment: Non-human primate study, serum ApoB and LDL-C (ApoB conjugates); format: in vivo, cynomolgus monkeys; settings: Example 7; single i.v. dose; FIG. 16
# Method: as §1
# Male (PCSK9) or female monkeys (ApoB) monkeys of at least 24 months old are used, and given free access to tap water and 180 g of MWM(E) SQC SHORT expanded diet (Dietex France, SDS, Saint Gratien, France) will be distributed daily per animal. The total quantity of food distributed in each cage will be calculated according to the number of animals in the cage on that day. In addition, fruit or vegetables will be given daily to each animal. The animals will be acclimated to the study conditions for a period of at least 14 days before the beginning of the treatment period. During this period, pre-treatment investigations will be performed. The animals are dosed i.v. at a dose if, for example, 0.25 mg/kg or 1 mg/kg. The dose volume will be 0.4 mL/kg. 2 animals are used per group. After three weeks, the data will be analyzed and a second group of animals using a higher or lower dosing regimen may be initiated—preliminary dose setting is 0.5 mg/kg and 1 mg/kg, or lower than that based on the first data set.
# The dose formulations will be administered once on Day 1. Animals will be observed for a period of 7 weeks following treatment, and will be released from the study on Day 51. Day 1 corresponds to the first day of the treatment period. Clinical observations and body weight and food intake (per group) will be recorded prior to and during the study.
# The following parameters will be determined for all surviving animals at the occasions indicated below: • full biochemistry panel (complete list below)—on Days −8, 15 and 50, • liver Safety (ASAT, ALP, ALAT, TBIL and GGT only)—on Days 4, 8, 22 and 36, • lipid profile (Total cholesterol, HDL-C, LDL-C and Triglycerides) and Apo-B only—on Days −1, 4, 8, 22, 29, 36, and 43.
# Blood (approximately 1.0 mL) is taken into lithium heparin tubes (using the ADVIA 1650 blood biochemistry analyzer): Apo-B, sodium, potassium, chloride, calcium, inorganic phosphorus, glucose, HDL-C, LDL-C, urea, creatinine, total bilirubin (TBIL), total cholesterol, triglycerides, alkaline phosphatase (ALP), alanine aminotransferase (ALAT), aspartate aminotransferase (ASAT), creatine kinase, gamma-glutamyl transferase (GGT), lactate dehydrogenase, total protein, albumin, albumin/globulin ratio.
# Other Analysis: WO2011009697 & WO2010142805 provides the methods for the following analysis: qPCR, PCSK9/ApoB mRNA analysis, Other analysis includes PCSK9/ApoB protein ELISA, serum Lp(a) analysis with ELISA (Mercodia No. 10-1106-01), tissue and plasma oligonucleotide analysis (drug content), Extraction of samples, standard- and QC-samples, Oligonucleotide content determination by ELISA. […] There was no indication of hepatotoxicity or nephrotoxicity with the ApoB targeting compounds.
# miR-122 = experiment: LNA antimiR GalNAc conjugates, miR122 knock down in mice; format: in vivo, mouse; settings: for Aldo A and Bckdk mRNA: already in the low dose group (3×0.5 mg/kg), liver; for miR122 knock down in the liver: i.v. days 0, 2 and 4, day 7, compared to parent LNA; for total cholesterol levels: i.v. days 0, 2 and 4, serum pre-dose, day 4 and day 7
# Method: (§5) An in vivo mouse study was performed using a total of 9 groups of mice (n=5). Each mouse was dosed i.v. on days 0, 2 and 4 with either 0.5 mg/kg or 2 mg/kg or equimolar doses of the GalNAc conjugated LNA's compared to parent LNA compound. A saline control group was included (see study set up in Tab. 1). Serum samples were taken 4 days pre administration, interim at day 4 and at endpoint day 7. Liver and kidney samples were stored in RNA later. Validation of miR122 knock down of miR122 was done as described in Obad Nat Genet. 2011 Mar. 20; 43(4):371-8 (FIG. 17). The cholesterol level in serum were analyzed as described in Elmen J, et al. LNA-mediated microRNA silencing in non-human primates. Nature. 2008; 452:896-899. (FIG. 18) and mRNA levels of two miR122 down regulated genes (Aldo A and Bckdk) were analyzed using standard QPCR assay techniques (FIG. 19). ALT was measured to assess tolerability of the compounds (FIG. 20).
# [4] = ALT in final serum (antimiR-122 study); format: in vivo, mouse; settings: mice, final serum day 7
# Method: Serum analysis for ALT, AST and cholesterol was performed on the “Cobas INTEGRA 400 plus” clinical chemistry platform (Roche Diagnostics), using 10 μl of serum.
# as §5
Substance,knock down of ApoB mRNA (ApoB mRNA),total cholesterol in serum (ApoB [1]),Aldo A and Bckdk mRNA (miR-122),miR122 knock down in the liver (miR-122),total cholesterol levels (miR-122),ALT [4],also measured
"SEQ ID NO 28: AsAsTsgscstsascsasasasasCsCsCsA, GalNAc cluster Conj2a; PCSK9 (AATGCTACAAAACCCA; listed as DNA, chemistry not fully specified)",–,–,–,–,–,–,"down regulation of PCSK9 (and LDL-C), onset and duration (PCSK9): rapid and consistent down regulation of PCSK9 and LDL-C throughout the duration of the study"
"SEQ ID NO 11: GsCsaststsgsgstsastsTsCsA, GalNAc cluster Conj2a; ApoB (GCATTGGTATTCA; listed as DNA, chemistry not fully specified)",knock down of ApoB mRNA better than the unconjugated ApoB LNA,better effect that the unconjugated and the cholesterol conjugated compounds,–,–,–,–,specific activity (activity relative to liver uptake) ([2]; iv dosing): higher specific activity than GalNAc 1 conjugate; pharmacology (serum ApoB and LDL-C) (ApoB [3]): did not exhibit significant pharmacology
"SEQ ID NO 54: 5′-Conj1a^mCsAs^mCsAs^mCsTs^mCs^mCca^mCsAs^mCsAs^mCsTs^mCs^mC-3′ (CACACTCCCACACACTCC; LNA, 5-methyl C, ca linker, 5' GalNAc Conj1a, chemistry not fully specified)",–,–,up regulation of Aldo A and Bckdk mRNA,remarkable improvement of miR122 knock down in the liver,decreased total cholesterol levels,tendency to improve,–
"SEQ ID NO 52: 5′-Conj1a^mCsAs^mCsAs^mCsTs^mCs^mC-3′ (CACACTCC; LNA, 5-methyl C, 5' GalNAc Conj1a, chemistry not fully specified)",–,–,up regulation of Aldo A and Bckdk mRNA,remarkable improvement of miR122 knock down in the liver,decreased total cholesterol levels,increase in ALT,–
"SEQ ID NO 13: GsCsaststsgsgstsastsTsCsA, GalNAc cluster Conj1a; ApoB (GCATTGGTATTCA; sugars from the 5' end l2 d8 l3, all phosphorothioate, methylation of C not given here; GalNAc cluster Conj1a conjugated)",knock down of ApoB mRNA better than the unconjugated ApoB LNA,better effect that the unconjugated and the cholesterol conjugated compounds,–,–,–,–,"knock down of ApoB mRNA, iv versus sc dosing (ApoB mRNA; single dose 0.36 mg/kg): iv dosing is better than sc dosing; tissue content of the oligonucleotides, uptake in liver ([2]; iv and sc, FIG. 10): very much uptake in liver"
